Patent US20190231686A1, “METHODS FOR TREATING CYSTIC FIBROSIS AND OTHER DISEASES AFFECTING MUCOSAL SURFACES” (priority 2016, published 2019)

Columns and labels:
[1] = system: mucoid CF clinical isolates of P. aeruginosa; conditions: elevated CO2 concentrations; titration with bicarbonate
[2] = system: patients with cystic fibrosis; conditions: single inhalation, CF patients; cited from earlier work

Compound: O=C(O)O [bicarbonate]
- Alginate expression [1]: suppressed

Compound: reduced glutathione [GSH]
- Ability of P. aeruginosa to utilize nitrate, nitrite or nitric oxide for respiration to grow (P. aeruginosa; low oxygen conditions such as within biofilm): limits the ability of P. aeruginosa to utilize nitrate, nitrite or nitric oxide for respiration
- Aerobic growth of P. aeruginosa (P. aeruginosa; nitrite and nitric oxide in the presence of GSH): inhibit aerobic growth of P. aeruginosa

Compound: N=C(N)NCCC[C@H](N)C(=O)O [L-arginine]
- Exhaled NO [2]: significantly increased
- FEV1 [2]: sustained improvement
